Test results reported in PubChem BioAssay (NCI).
Several values for one entry are separate records, joined by “and”; a condition that tells them apart may be missing. Equal values may be shown once.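 Step 1: Grow cells in 96-well plates. Step 2: Expose to compound for 48 hours at 5 concentrations. Step 3: Interpolate endpoints linearly; if unreached, use highest concentration. Abbreviation: GI50, concentration required for 50% inhibition of growth. At the TGI there is no net growth.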

What follows are compounds tested on 786-0 renal (assay: NCI tumour cell line growth inhibition, 48 h).
For CC(=O)OCc1ccc2c(c1)C(O)NC(=O)O2 (stereo not given), the TGI was over 100 µM.
Work on CC1(C)CC(c2c[nH]c3ccccc23)=CC2=Nc3ccccc3C21O (stereo not given) yielded a TGI of over 100 µM.
Compound O=C(Nc1nn2c(-c3cc(C(F)(F)F)cc(C(F)(F)F)c3)nnc2s1)C1CCCC1 has a GI50 of 0.663 µM and a TGI of over 32.8 µM.
In the case of COC(=O)[C@]12CC[C@@H](C)[C@H](C)[C@@H]1C1=CC[C@@H]3[C@@]4(C)C[C@@H](O)[C@H](O)[C@@](C)(CO)[C@@H]4[C@H](O)C[C@@]3(C)[C@]1(C)CC2, the GI50 is reported as 11.5 µM and the TGI is reported as 31.6 µM.
In the case of COc1ccc(CN2C(=O)C(Cl)=C(Nc3cccc(C(F)(F)F)c3)C2=O)cc1, the GI50 is reported as 8.02 µM and the TGI is reported as 30.1 µM.
COCCn1cc(-c2nc(-c3cc4cccnc4[nH]3)cs2)c2cc(OC)ccc21 gave a GI50 of 3.04 µM and a TGI of 20.9 µM.
In the case of O=[N+]([O-])c1cc([N+](=O)[O-])c(C(F)(F)F)cc1NN=C(c1ccc(O)cc1)c1ccc(O)cc1, the GI50 is reported as 2.67 µM and the TGI is reported as 9.54 µM.
c1ccc(Nc2ncc(-c3ccccc3)o2)cc1 was tested, and the GI50 was over 25 µM and the TGI was over 25 µM.
In the case of COc1c2ccccc2c(OC)c2[nH]c(=O)ccc12, the GI50 is reported as 56.1 µM and the TGI is reported as over 100 µM.
With O=C(O)C(Cl)Cl the GI50 was 5690 µM and > 10000 µM and the TGI was over 10000 µM.
NC(=S)N/N=C\c1nccc2c(C(F)(F)F)cccc12 gave a GI50 of 0.3 µM and a TGI of 0.957 µM.
Work on CC(=O)N[C@@H](Cc1ccc(OP(=O)(O)O)cc1)C(=O)N[C@H]1CCC(=O)N2CCC[C@@H](C(=O)Nc3cccc4ccccc34)N2C1=O yielded a GI50 of over 25 µM and a TGI of over 25 µM.
In the case of O=C(/C=C/c1c(O)ccc2ccccc12)c1ccc([N+](=O)[O-])cc1, the TGI is reported as over 55.6 µM.

The compounds below were run on KM12 colon (assay: NCI tumour cell line growth inhibition, 48 h).
For CN(C)c1ccc(/C=N/NC(=S)Nc2ccccc2)cc1, the TGI was over 100 µM.
Compound COc1ccc2ncnc(Nc3ccc(OCc4ccccc4)cc3)c2c1 has a GI50 of 8.67 µM and a TGI of over 25 µM.
O=C1c2c(F)c(F)c(F)c(F)c2C(=O)N1c1ccc(F)cc1F was tested, and the GI50 was 22.5 µM and the TGI was 65.5 µM.
Work on O=C1C(C(Nc2ccccc2)c2ccccc2)=C([O-])c2ccccc21.O=C1C(C(Nc2ccccc2)c2ccccc2)=C([O-])c2ccccc21.[Cu+2] (stereo not given) yielded a GI50 of 32.2 µM and a TGI of over 100 µM.
Compound OC(c1cc(C(F)(F)F)nc2c(C(F)(F)F)cccc12)C1CCCCN1 (stereo not given) has a GI50 of 1.87 µM and a TGI of 3.59 µM.
With C/C=C/[C@@H]1O[C@@H]2COC(=O)C2=C[C@@H]1O the GI50 was 20.5 µM and the TGI was 53.2 µM.
COC(=O)/C=C/c1cc(OC(C)=O)c2c(c1)[C@@H](C(=O)OC)[C@H](c1ccc(OC(C)=O)c(OC(C)=O)c1)O2 was tested, and the GI50 was 0.203 µM and the TGI was 18.7 µM.
Work on Nc1nc2[nH]cc(CCc3ccc(C(=O)N[C@@H](CCC(=O)O)C(=O)O)cc3)c2c(=O)[nH]1 yielded a TGI of over 100 µM.
CCC(C)SC1SCC2C(=O)N(C)C3(CC3C)C(=O)OCC(NC(=O)c3nc4ccccc4cc3O)C(=O)NC(C)C(=O)N(C)C1C(=O)N(C)C1(CC1C)C(=O)OCC(NC(=O)c1nc3ccccc3cc1O)C(=O)NC(C)C(=O)N2C (stereo not given) showed a GI50 of 5.24e-05 µM and a TGI of 0.000397 µM.
Work on CN1CCN(C(=O)COc2ccc(C34CC5CC(CC(C5)C3)C4)cc2)CC1 yielded a GI50 of 14.8 µM and a TGI of 32.4 µM.
Cc1[cH-]c(=O)n(-c2ccccc2)n1.[Au+].[Au].c1ccc([PH+](c2ccccc2)c2ccccc2)cc1.c1ccc([PH+](c2ccccc2)c2ccccc2)cc1 gave a GI50 of 36.7 µM and a TGI of over 100 µM.
With COc1ccccc1NC(=O)c1cc2cc(Br)ccc2cc1O the GI50 was 3.17 µM and the TGI was 10.8 µM.
CC(=O)OCc1ccc2c(c1)C(O)NC(=O)O2 (stereo not given) gave a TGI of over 100 µM.
Compound CC1(C)CC(c2c[nH]c3ccccc23)=CC2=Nc3ccccc3C21O (stereo not given) has a TGI of over 100 µM.
O=C(Nc1nn2c(-c3cc(C(F)(F)F)cc(C(F)(F)F)c3)nnc2s1)C1CCCC1 gave a GI50 of 0.575 µM and a TGI of over 46.2 µM.
For COC(=O)[C@]12CC[C@@H](C)[C@H](C)[C@@H]1C1=CC[C@@H]3[C@@]4(C)C[C@@H](O)[C@H](O)[C@@](C)(CO)[C@@H]4[C@H](O)C[C@@]3(C)[C@]1(C)CC2, the GI50 was 12.3 µM and the TGI was 26.4 µM.
Compound COc1ccc(CN2C(=O)C(Cl)=C(Nc3cccc(C(F)(F)F)c3)C2=O)cc1 has a GI50 of 7.83 µM and a TGI of 25.6 µM.
With COCCn1cc(-c2nc(-c3cc4cccnc4[nH]3)cs2)c2cc(OC)ccc21 the GI50 was 0.203 µM and the TGI was 9.38 µM.
